Two substances from patent US20070219346A1, “Glucose sensor and uses thereof” (McGill University, priority 2002, published 2007) can be followed below.

Entries after “also recorded” stand apart in the source; their conditions may differ.

The nature of data set [1]: Glucokinase activity of purified tagged glucokinases, coupled glucose 6-P dehydrogenase/NADPH assay. The data set is classed as biochemical, human.
Procedure: Glucokinase activity was assayed as described previously [Storer, A. C., et al., Biochem. J. 141:205-209 (1974)] with the following modifications. Reactions were carried out at 25° C. in 50 nM glycylglycinate buffer, pH 7.8, containing 1 mM NADP, 100 mM KCl, 5 mM MgCl2, 1 unit of glucose 6-P dehydrogenase, 100 mM glucose, 5 mM ATP, and glucokinase in a total volume of 1 ml. All reaction mixtures were incubated at 25° C.
Production of NADPH was followed by the increase in absorbance at 340 nm using a spectrophotometer. Glucokinase activity may then be calculated using the following formula: Activity (units/ml)=(Δ OD/min)/0.15×dilution factor
A unit of activity is the amount of glucokinase which transforms, under optimal conditions, 1 μmole of substrate/min at room temperature.
The glucokinase activity of the purified glucokinases was assayed as above.
A short description of data set [2]: Enzymatic activity of glucokinase immobilized on solid supports or electrode surfaces. Conditions: for glucokinase activity while immobilized: on glutathione or Ni2+-containing supports. Format: biochemical, human. As for the experimental part:
The enzymatic activity of the wild-type GST and His-tagged glucokinases was measured while the proteins were immobilized on glutathione or Ni^2+-containing supports, respectively.
This was not a complete surprise, as the final coupling requires free amino groups of the protein. Most likely there are a significant number of such groups involved, but in the process of participating in the coupling, enzyme function is destroyed.
Each step was analyzed by bioimpedance measurements. First, nitrilotriacetic acid (NTA) ligand (FIG. 9A) was coupled to SP electrode surface using 1-ethyl-3-(3-dimethylaminopropyl)-carbodiimide (EDC) activation (FIG. 9B). Electrodes were then loaded with Ni^2+ cations. Wild-type His-GLK (1 μg) was then avidly coupled to the electrode surface, again corroborated by impedance measurements (FIG. 9C). These prepared electrodes were subsequently used as glucose biosensors.

A short description of data set [3]: Intrinsic fluorescence spectroscopy of His-tagged glucokinase in solution. The data set is classed as binding, human. The note with it: 100 mM glucose, excitation 280 nm. As for the experimental part:
FIG. 7 depicts fluorescence spectroscopy analysis of His-tagged glucokinase. The intrinsic fluorescence intensity spectrum of His-tagged wild-type glucokinase was measured following excitation at 280 nm. The baseline spectrum of His-tagged glucokinase alone is shown (His-GLK, thin dashed line).
Intrinsic fluorescence experiments with glucokinase were performed to document and verify glucose-induced conformational changes, which is an absolute requirement for impedance biosensing to be successful. Purified wild-type N-terminal His-tagged glucokinase (10 μg) with enzyme specific activity of ≅200 U/mg was used in a 10×10 mm^2 cuvette. After the addition of 100 mM glucose, intrinsic fluorescence spectroscopy was performed (excitation wavelength 280 nm; maximum fluorescence 312 nm). There is a 20-25% increase in maximal intrinsic fluorescence at 312 nm with the addition of 100 mM glucose, reflective of conformational changes in the His-tagged glucokinase (FIG. 7). This is similar to native wild-type glucokinase [Xu L Z, Zhang W, Weber I T, Harrison R W, Pilkis S J. 1994. Site-directed mutagenesis studies on the determinants of sugar specificity and cooperative behavior of human beta-cell glucokinase. J Biol Chem 269:27458-27465; and Xu L Z, Weber I T, Harrison R W, Gidh-Jain M, Pilkis S J. 1995. […]

The nature of data set [4]: Intrinsic fluorescence spectroscopy of His-tagged glucokinase immobilized on Ni-NTA agarose. Format: binding, human. Conditions: for change of maximal intrinsic fluorescence in presence of glucose, immobilized protein: 100 mM glucose, Ni-NTA agarose bound. The protocol:
FIG. 8 depicts fluorescence spectroscopy analysis of His-tagged glucokinase immobilized on Ni-NTA agarose (QIAGEN). The intrinsic fluorescence intensity spectra were measured in the absence and presence of 100 mM glucose following excitation at 280 nm. The baseline spectrum of immobilized His-tagged glucokinase alone is shown (Ni-NTA-His-GLK, thin line).
Intrinsic fluorescence experiments were performed on purified immobilized wild-type N-terminal His-tagged glucokinase (FIG. 8). […] Next, immobilized His-GLK that had been previously incubated with glucose was washed with glucose-free buffer. […] When the washed Ni^2+-bound His-GLK was incubated with glucose, again an upward shift in the fluorescence intensity occurred, indicative of a recurring conformational change in the protein.

Data set [5] can be described thus: Impedance biosensing with His-GLK immobilized on Ni2+-NTA screen-printed electrodes. Details: species or system human. The note with it: 100 mM glucose, Ni2+-NTA screen-printed electrode. As for the experimental part: FIG. 9 depicts A) Immobilized-metal affinity chromatography (IMAC). Adjacent histidine residues in His-tagged proteins interact with the Ni^2+-NTA matrix. B-D) Typical Nyquist diagrams obtained for different electrode surface conditions. The imaginary (Zi) and real (Zr) complex impedence elements were calculated by computer following impedence measurements. B) Modification of screen-printed electrode (SPE) with NTA ligand. Nitrilotriacetic acid (NTA) ligand was coupled to the bare SPE electrode surface using 1-ethyl-3-(3-dimethylaminopropyl)-carbodiimide (EDC) activation. C) Immobilization of glucokinase. The SPE was loaded with Ni^2+ cations (Ni2+) and His-tagged wild-type glucokinase (GLK) immobilized on the surface. D) Detection of glucose.
To establish the use of modified re-engineered glucokinase molecules as potential mediators of glucose recognition, experiments were performed using impedance biosensing technology. The initial objectives were to covalently immobilize wild-type glucokinase on two potential electrode substrates: silicon (Si; industry standard), and screen-printed graphite (SP) electrodes [Marquette, C. A. et al., Anal. Chem., 78:959-964 (2006)]. Impedance measurements were used to monitor the changes of glucokinase in the presence of glucose. […]
Each step was analyzed by bioimpedance measurements. […]

Turning to “His-GLK: wild-type human liver glucokinase with N-terminal polyhistidine tag, expressed from pET-15b in E. coli”, in data set [1] (purified affinity-tagged protein, 100 mM glucose, 5 mM ATP, 25° C.), the glucokinase enzymatic activity entry is recorded as “expected enzymatic activity; also recorded: significant glucokinase enzymatic activity”. The substance further yielded an enzyme specific activity in data set [1] (purified wild-type N-terminal His-tagged glucokinase) of roughly 200 U/mg. For the same substance, the entries for the “glucokinase activity while immobilized” value in data set [2] and in data set [2] (listed as His-tagged glucokinase) were “retained glucokinase activity” and “retained full enzymatic activity”, respectively. The “increase in maximal intrinsic fluorescence at 312 nm” value in data set [3] is 20-25%. In addition, the “change of maximum intrinsic fluorescence intensity on glucose addition” value in data set [3] (in solution) was “increase in the maximum fluorescence intensity”. For the same substance, the “change of maximal intrinsic fluorescence in presence of glucose, immobilized protein” value in data set [4] was “increase in the maximal intrinsic fluorescence”; in data set [4] (listed as Ni-NTA-His-GLK) it was “maximum fluorescence intensity increased”. The “reversibility of glucose binding” value in data set [4] (immobilized, washed with glucose-free buffer) is “reversible”. Further, the results for the “impedance change in the presence of glucose” value in data set [5] and in data set [5] (listed as His-tagged GLK) were “significant impedance changes” and “significant shift to the left in the curve”, respectively.
As to “glucokinase: human wild-type glucokinase, hexokinase family enzyme binding D-glucose”, the “enzyme activity after covalent coupling to electrode surface” value in data set [2] (nitrobenzenediazoniun/glutaraldehyde coupling) was “total loss of enzyme activity”.
